Assay results published in ChEMBL document CHEMBL1909046, “DrugMatrix in vitro pharmacology data”.
pIC50: −log10 of the molar value.

Columns and labels:
[1] = biological target: T1, Type-2 angiotensin II receptor (Homo sapiens, UniProt P50052); type: cell-based; conditions: cho-k1; note: in other assays of this panel Not Active means under 50% inhibition at 10 µM
T1 sequence (P50052 whole entry): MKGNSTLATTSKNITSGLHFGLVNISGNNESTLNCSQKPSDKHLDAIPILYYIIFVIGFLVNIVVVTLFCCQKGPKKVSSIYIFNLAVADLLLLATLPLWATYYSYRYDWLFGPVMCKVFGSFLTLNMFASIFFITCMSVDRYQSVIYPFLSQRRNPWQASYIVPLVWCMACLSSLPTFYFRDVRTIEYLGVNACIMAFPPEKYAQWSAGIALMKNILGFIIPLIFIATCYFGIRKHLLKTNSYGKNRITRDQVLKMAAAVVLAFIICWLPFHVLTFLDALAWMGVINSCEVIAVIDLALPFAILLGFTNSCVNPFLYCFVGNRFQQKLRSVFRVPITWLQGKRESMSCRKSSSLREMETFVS

[2] = biological target: T2, B2 bradykinin receptor (Homo sapiens, UniProt P30411); type: cell membranes, Membrane; conditions: chem-1; note: in other assays of this panel Not Active means under 50% inhibition at 10 µM
T2 sequence (P30411 whole entry): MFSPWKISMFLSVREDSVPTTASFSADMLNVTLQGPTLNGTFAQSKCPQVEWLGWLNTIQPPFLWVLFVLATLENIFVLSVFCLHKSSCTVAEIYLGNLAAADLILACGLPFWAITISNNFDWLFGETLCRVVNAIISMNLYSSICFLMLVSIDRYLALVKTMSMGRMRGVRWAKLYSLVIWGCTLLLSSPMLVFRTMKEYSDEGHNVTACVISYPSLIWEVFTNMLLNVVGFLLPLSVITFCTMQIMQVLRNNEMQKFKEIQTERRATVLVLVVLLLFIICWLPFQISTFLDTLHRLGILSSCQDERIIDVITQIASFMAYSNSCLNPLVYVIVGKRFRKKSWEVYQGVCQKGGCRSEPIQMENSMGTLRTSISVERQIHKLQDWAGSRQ

[3] = biological target: Cannabinoid receptor 1 (Homo sapiens, UniProt P21554); type: cell membranes, Chem-1, Membrane; conditions: chem-1; note: in other assays of this panel Not Active means under 50% inhibition at 10 µM
[4] = biological target: T3, D(4) dopamine receptor (Homo sapiens, UniProt P21917); assay: DRUGMATRIX: Dopamine D4.2 radioligand binding (ligand: [3H] Spiperone); type: cell membranes, CHO-K1, Membrane; conditions: cho-k1; Not Active = under 50% inhibition at 10 µM
T3 sequence (P21917 whole entry): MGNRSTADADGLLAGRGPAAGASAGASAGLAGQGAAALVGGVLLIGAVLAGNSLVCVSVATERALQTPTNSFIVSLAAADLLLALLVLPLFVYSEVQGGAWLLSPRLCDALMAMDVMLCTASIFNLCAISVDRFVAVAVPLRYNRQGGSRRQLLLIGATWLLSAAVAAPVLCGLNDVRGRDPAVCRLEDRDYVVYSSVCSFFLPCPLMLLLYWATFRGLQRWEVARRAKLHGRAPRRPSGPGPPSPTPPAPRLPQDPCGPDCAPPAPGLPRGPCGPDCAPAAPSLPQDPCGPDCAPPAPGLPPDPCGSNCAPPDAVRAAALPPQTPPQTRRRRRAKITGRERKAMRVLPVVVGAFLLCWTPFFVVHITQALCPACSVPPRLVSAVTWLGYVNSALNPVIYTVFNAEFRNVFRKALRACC

[5] = DRUGMATRIX: Glutamate, AMPA radioligand binding (ligand: [3H] AMPA); type: cell membranes, Rattus norvegicus, Wistar, Cerebral cortex, Membrane; conditions: Not Active = under 50% inhibition at 10 µM
[6] = biological target: T4, Cysteinyl leukotriene receptor 1 (Homo sapiens, UniProt Q9Y271); type: cell membranes, CHO-K1, Membrane; conditions: cho-k1; note: in other assays of this panel Not Active means under 50% inhibition at 10 µM
T4 sequence (Q9Y271 whole entry): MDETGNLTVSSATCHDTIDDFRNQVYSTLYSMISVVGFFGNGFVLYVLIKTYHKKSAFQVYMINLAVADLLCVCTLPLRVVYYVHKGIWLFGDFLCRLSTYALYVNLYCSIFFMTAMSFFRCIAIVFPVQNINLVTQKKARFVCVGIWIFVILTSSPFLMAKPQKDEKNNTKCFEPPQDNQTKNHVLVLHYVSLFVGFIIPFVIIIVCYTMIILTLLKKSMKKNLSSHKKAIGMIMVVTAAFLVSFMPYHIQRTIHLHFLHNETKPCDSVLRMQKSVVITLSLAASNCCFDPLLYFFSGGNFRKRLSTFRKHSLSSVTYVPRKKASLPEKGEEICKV

[7] = DRUGMATRIX: Phorbol Ester radioligand binding (ligand: [3H] PDBu); type: cell membranes, Mus musculus, ICR, Brain, Membrane; conditions: Not Active = under 50% inhibition at 10 µM
[8] = biological target: Tyrosine-protein kinase Lck (Homo sapiens, UniProt P06239); assay: DRUGMATRIX: Protein Tyrosine Kinase, LCK enzyme inhibition (substrate: Poly(Glu:Tyr)); type: cell-based, Insect cells; conditions: Not Active = under 50% inhibition at 10 µM; for IC50: insect cells
Chain of Tyrosine-protein kinase Lck (P06239 whole entry): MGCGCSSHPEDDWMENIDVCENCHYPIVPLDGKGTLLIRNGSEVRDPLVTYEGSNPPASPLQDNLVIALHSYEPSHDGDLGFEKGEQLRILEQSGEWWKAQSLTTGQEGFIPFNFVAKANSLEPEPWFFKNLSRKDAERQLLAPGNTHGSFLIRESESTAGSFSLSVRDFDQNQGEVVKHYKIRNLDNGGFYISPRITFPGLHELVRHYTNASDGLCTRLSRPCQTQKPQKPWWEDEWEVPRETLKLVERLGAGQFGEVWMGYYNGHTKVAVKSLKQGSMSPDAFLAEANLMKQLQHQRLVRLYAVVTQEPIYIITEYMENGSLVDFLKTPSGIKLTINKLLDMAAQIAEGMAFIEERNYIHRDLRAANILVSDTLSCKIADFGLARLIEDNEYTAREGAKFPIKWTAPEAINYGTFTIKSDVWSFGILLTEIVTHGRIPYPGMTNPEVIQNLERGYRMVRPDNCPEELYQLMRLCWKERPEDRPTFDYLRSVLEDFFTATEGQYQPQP

Chain of Cannabinoid receptor 1 (P21554 whole entry): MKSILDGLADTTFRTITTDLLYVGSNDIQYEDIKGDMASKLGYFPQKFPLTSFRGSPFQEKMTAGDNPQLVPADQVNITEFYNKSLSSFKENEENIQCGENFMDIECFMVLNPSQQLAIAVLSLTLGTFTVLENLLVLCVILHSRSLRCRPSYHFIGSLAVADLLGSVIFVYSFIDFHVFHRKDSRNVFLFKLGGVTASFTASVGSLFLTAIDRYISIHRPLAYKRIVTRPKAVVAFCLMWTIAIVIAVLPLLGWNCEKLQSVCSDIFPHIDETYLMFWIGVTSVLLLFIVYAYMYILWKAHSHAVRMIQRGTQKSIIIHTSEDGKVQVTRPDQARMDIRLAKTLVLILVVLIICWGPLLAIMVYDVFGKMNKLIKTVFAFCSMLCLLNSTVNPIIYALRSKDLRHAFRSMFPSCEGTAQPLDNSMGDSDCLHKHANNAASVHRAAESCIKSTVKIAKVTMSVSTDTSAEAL

Row | SMILES | IC50 [1] | IC50 [2] | IC50 [3] | IC50 [4] | IC50 [5] | Ki [5] | IC50 [6] | IC50 [7] | Ki [7] | IC50 [8] | pIC50 ([8]; read-out: IC50)
1 | C[N+]1(C)[C@@H]2C[C@@H](OC(=O)[C@H](CO)c3ccccc3)C[C@H]1[C@@H]1O[C@@H]12.[Br-] [METHSCOPOLAMINE BROMIDE] | Not Active | Not Active | Not Active | Not Active | Not Active | Not Active | Not Active | Not Active | Not Active | Not Active | –
2 | CC[C@H](C)[C@@H](CO[C@@H](Cc1ccccc1)C(=O)N[C@@H](CCS(C)(=O)=O)C(=O)OC(C)C)NC[C@@H](N)CS | Not Active | Not Active | Not Active | Not Active | Not Active | Not Active | Not Active | Not Active | Not Active | Not Active | –
3 | CCN1CCCC1CNC(=O)c1cc(S(N)(=O)=O)ccc1OC (stereo not given) [SULPIRIDE] | Not Active | Not Active | Not Active | Not Active | Not Active | Not Active | Not Active | Not Active | Not Active | Not Active | –
4 | CC[C@H](C)C(=O)O[C@H]1CCC=C2C=C[C@H](C)[C@H](CC[C@@H]3C[C@@H](O)CC(=O)O3)[C@H]21 [MEVASTATIN] | Not Active | Not Active | Not Active | Not Active | Not Active | Not Active | Not Active | Not Active | Not Active | Not Active | –
5 | C[C@]12CCC(=O)C[C@@H]1CC[C@@H]1[C@@H]2CC[C@]2(C)[C@@H](O)CC[C@@H]12 [STANOLONE] | Not Active | Not Active | Not Active | Not Active | Not Active | Not Active | Not Active | Not Active | Not Active | Not Active | –
6 | CC(N)C12CC3CC(CC(C3)C1)C2 (stereo not given) [RIMANTADINE] | Not Active | Not Active | Not Active | Not Active | Not Active | Not Active | Not Active | Not Active | Not Active | Not Active | –
7 | Cc1cccc(C)c1NC(=O)C(C)N (stereo not given) [TOCAINIDE] | Not Active | Not Active | Not Active | Not Active | Not Active | Not Active | Not Active | Not Active | Not Active | Not Active | –
8 | CCN(CC)N=O [N-NITROSODIETHYLAMINE] | Not Active | Not Active | Not Active | Not Active | Not Active | Not Active | Not Active | Not Active | Not Active | Not Active | –
9 | CCC(C)(C)C(=O)O[C@H]1C[C@@H](C)C=C2C=C[C@H](C)[C@H](CC[C@@H]3C[C@@H](O)CC(=O)O3)[C@H]21 [SIMVASTATIN] | Not Active | Not Active | Not Active | Not Active | Not Active | Not Active | Not Active | Not Active | Not Active | Not Active | –
10 | CN1C[C@H](CNC(=O)OCc2ccccc2)C[C@@H]2c3cccc4c3c(cn4C)C[C@H]21 [METERGOLINE] | Not Active | Not Active | Not Active | Not Active | Not Active | Not Active | Not Active | Not Active | Not Active | Not Active | –
11 | CCN(CC)CCNC(=O)c1cc(Cl)c(N)cc1OC [METOCLOPRAMIDE] | Not Active | Not Active | Not Active | Not Active | Not Active | Not Active | Not Active | Not Active | Not Active | Not Active | –
12 | Cc1ccc(Cl)c(Nc2ccccc2C(=O)O)c1Cl [MECLOFENAMIC ACID] | Not Active | Not Active | Not Active | Not Active | Not Active | Not Active | Not Active | Not Active | Not Active | Not Active | –
13 | CO[C@@]12[C@H](COC(N)=O)C3=C(C(=O)C(C)=C(N)C3=O)N1C[C@@H]1N[C@@H]12 [MITOMYCIN] | Not Active | Not Active | Not Active | Not Active | Not Active | Not Active | Not Active | Not Active | Not Active | Not Active | –
14 | Cc1[nH]c(=O)c(C#N)cc1-c1ccncc1 [MILRINONE] | Not Active | Not Active | Not Active | Not Active | Not Active | Not Active | Not Active | Not Active | Not Active | Not Active | –
15 | O=[As][O-].[Na+] [SODIUM ARSENITE] | Not Active | Not Active | Not Active | Not Active | Not Active | Not Active | Not Active | Not Active | Not Active | Not Active | –
16 | COC(=O)Nc1nc2ccc(C(=O)c3ccccc3)cc2[nH]1 [MEBENDAZOLE] | Not Active | Not Active | Not Active | Not Active | Not Active | Not Active | Not Active | Not Active | Not Active | Not Active | –
17 | CCOC(=O)C1=C(C)NC(C)=C(C(=O)OCC)C1c1ccccc1/C=C/C(=O)OC(C)(C)C [LACIDIPINE] | Not Active | Not Active | Not Active | Not Active | Not Active | Not Active | Not Active | Not Active | Not Active | Not Active | –
18 | O=C(OC[C@H]1O[C@@H](OC(=O)c2cc(O)c(O)c(OC(=O)c3cc(O)c(O)c(O)c3)c2)[C@H](OC(=O)c2cc(O)c(O)c(OC(=O)c3cc(O)c(O)c(O)c3)c2)[C@@H](OC(=O)c2cc(O)c(O)c(OC(=O)c3cc(O)c(O)c(O)c3)c2)[C@@H]1OC(=O)c1cc(O)c(O)c(OC(=O)c2cc(O)c(O)c(O)c2)c1)c1cc(O)c(O)c(OC(=O)c2cc(O)c(O)c(O)c2)c1 [TANNIC ACID] | Not Active | Not Active | Not Active | Not Active | Not Active | Not Active | Not Active | Not Active | Not Active | – | 7.10
19 | CC#C[C@]1(O)CC[C@H]2[C@@H]3CCC4=CC(=O)CCC4=C3[C@@H](c3ccc(N(C)C)cc3)C[C@@]21C [MIFEPRISTONE] | Not Active | Not Active | Not Active | Not Active | Not Active | Not Active | Not Active | Not Active | Not Active | Not Active | –
20 | CC(O)C(=O)O (stereo not given) [LACTIC ACID] | Not Active | Not Active | Not Active | Not Active | Not Active | Not Active | Not Active | Not Active | Not Active | Not Active | –
